In publication PMC5488175, “A New Methodology for Incorporating Chiral Linkers into Stapled Peptides” (Chembiochem, 2017):

Columns and labels:
[1] = Circular dichroism helicity; type: physicochemical; conditions: CD, MRE222 vs theoretical maximum; PBS (50 mM)/acetonitrile 95:5, pH 7.4, 20 °C; average of three scans
Procedure: Each purified peptide was dissolved in phosphate buffer (PBS; 50 mM)/acetonitrile (95:5, pH 7.4) and its circular dichroism spectrum was recorded.
Circular dichroism: CD spectra were obtained on a Chirascan CD spectrometer at 20 °C (1 mm path length, 260–190 nm, bandwidth 1.0 nm, response time 0.5 s, step resolution 1.0 nm) Each spectrum is the average of three scans. Peptides were dissolved in PBS (50 mM)/acetonitrile (95:5, pH 7.4) at 20 °C. The helicity was calculated as previously reported19b by comparing mean residue ellipticity at 222 nm (MRE222) to the theoretical maximum as calculated from the formula [Eq. (1), n=number of amino acid residues] described by Forood et al.21 (1) MRE222=-40000×(1-2.5/n)
Spectra were obtained at several concentrations ([…]).

α-chymotrypsin = experiment: Serum stability assay: incubation with α‐chymotrypsin; type: in vitro ADME; conditions: α-chymotrypsin (0.5 μg/mL) in PBS, α-chymotrypsin 0.5 μg mL−1 in PBS, peptide 0.3 mM from DMSO stock, RT, HPLC 220 nm vs caffeine internal standard, duplicate, read-out: peptide remaining intact after 6 h of incubation with α‐chymotrypsin
Procedure: Serum stability assay: Each peptide was dissolved in PBS (300 μL) from a DMSO stock to a final concentration of 0.3 mM. This PBS contained α‐chymotrypsin (0.5 μg mL^−1) and caffeine as an internal standard. Peptides were incubated at RT, and at each time point, an aliquot (30 μL) of the mixture was removed, snap frozen, thawed and centrifuged, and the supernatant was analysed by HPLC. Peptide degradation was monitored by comparing the integration of the peptide peak against the internal standard at […]. Experiments were performed in duplicate.

Helicity [1] [%] | remaining at 6 h, 0.3 mM (α-chymotrypsin) [%] | SMILES
52 | 17 | C=CCCC[C@](C)(NC(=O)[C@H](Cc1ccccc1)NC(=O)[C@@H](NC(=O)[C@H](CCC(=O)O)NC(C)=O)[C@@H](C)O)C(=O)N[C@@H](CC(=O)O)C(=O)N[C@@H](CC(C)C)C(=O)N[C@@H](Cc1c[nH]c2ccccc12)C(=O)N[C@@H](CCCNC(=N)N)C(=O)N[C@@H](CC(C)C)C(=O)N[C@@H](CC(C)C)C(=O)N[C@@H](CCN=[N+]=[N-])C(=O)N[C@@H](CCC(=O)O)C(=O)N[C@@H](CC(N)=O)C(N)=O [SP0]
53 | 82 | CC(=O)N[C@@H](CCC(=O)O)C(=O)N[C@H](C(=O)N[C@@H](Cc1ccccc1)C(=O)N[C@@]1(C)CCCC=CCCC[C@H](OC(=O)[C@@H](N)CCCCN)c2cn(nn2)CC[C@@H](C(=O)N[C@@H](CCC(=O)O)C(=O)N[C@@H](CC(N)=O)C(N)=O)NC(=O)[C@H](CC(C)C)NC(=O)[C@H](CC(C)C)NC(=O)[C@H](CCCNC(=N)N)NC(=O)[C@H](Cc2c[nH]c3ccccc23)NC(=O)[C@H](CC(C)C)NC(=O)[C@H](CC(=O)O)NC1=O)[C@@H](C)O [SP1 (A)]
31 | – | CC(=O)N[C@@H](CCC(=O)O)C(=O)N[C@H](C(=O)N[C@@H](Cc1ccccc1)C(=O)N[C@@]1(C)CCCC=CCCC[C@H](OC(=O)[C@@H](N)CCCCN)c2cn(nn2)CC[C@@H](C(=O)N[C@@H](CCC(=O)O)C(=O)N[C@@H](CC(N)=O)C(N)=O)NC(=O)[C@H](CC(C)C)NC(=O)[C@H](CC(C)C)NC(=O)[C@H](CCCNC(=N)N)NC(=O)[C@H](Cc2c[nH]c3ccccc23)NC(=O)[C@H](CC(C)C)NC(=O)[C@H](CC(=O)O)NC1=O)[C@@H](C)O [SP1 (B)]
55 | – | CC(=O)N[C@@H](CCC(=O)O)C(=O)N[C@H](C(=O)N[C@@H](Cc1ccccc1)C(=O)N[C@@]1(C)CCCC=CCCC[C@H](OC(=O)[C@H](CCCCN)NC(=O)[C@@H](N)CCCCN)c2cn(nn2)CC[C@@H](C(=O)N[C@@H](CCC(=O)O)C(=O)N[C@@H](CC(N)=O)C(N)=O)NC(=O)[C@H](CC(C)C)NC(=O)[C@H](CC(C)C)NC(=O)[C@H](CCCNC(=N)N)NC(=O)[C@H](Cc2c[nH]c3ccccc23)NC(=O)[C@H](CC(C)C)NC(=O)[C@H](CC(=O)O)NC1=O)[C@@H](C)O [SP1‐K (A)]
31 | – | CC(=O)N[C@@H](CCC(=O)O)C(=O)N[C@H](C(=O)N[C@@H](Cc1ccccc1)C(=O)N[C@@]1(C)CCCC=CCCC[C@H](OC(=O)[C@H](CCCCN)NC(=O)[C@@H](N)CCCCN)c2cn(nn2)CC[C@@H](C(=O)N[C@@H](CCC(=O)O)C(=O)N[C@@H](CC(N)=O)C(N)=O)NC(=O)[C@H](CC(C)C)NC(=O)[C@H](CC(C)C)NC(=O)[C@H](CCCNC(=N)N)NC(=O)[C@H](Cc2c[nH]c3ccccc23)NC(=O)[C@H](CC(C)C)NC(=O)[C@H](CC(=O)O)NC1=O)[C@@H](C)O [SP1‐K (B)]
67 | – | CC(=O)N[C@@H](CCC(=O)O)C(=O)N[C@H](C(=O)N[C@@H](Cc1ccccc1)C(=O)N[C@@]1(C)CCCC=CCCC[C@@H](OC(=O)[C@@H](N)CCCCN)c2cn(nn2)CC[C@@H](C(=O)N[C@@H](CCC(=O)O)C(=O)N[C@@H](CC(N)=O)C(N)=O)NC(=O)[C@H](CC(C)C)NC(=O)[C@H](CC(C)C)NC(=O)[C@H](CCCNC(=N)N)NC(=O)[C@H](Cc2c[nH]c3ccccc23)NC(=O)[C@H](CC(C)C)NC(=O)[C@H](CC(=O)O)NC1=O)[C@@H](C)O [SP2 (A)]
35 | – | CC(=O)N[C@@H](CCC(=O)O)C(=O)N[C@H](C(=O)N[C@@H](Cc1ccccc1)C(=O)N[C@@]1(C)CCCC=CCCC[C@@H](OC(=O)[C@@H](N)CCCCN)c2cn(nn2)CC[C@@H](C(=O)N[C@@H](CCC(=O)O)C(=O)N[C@@H](CC(N)=O)C(N)=O)NC(=O)[C@H](CC(C)C)NC(=O)[C@H](CC(C)C)NC(=O)[C@H](CCCNC(=N)N)NC(=O)[C@H](Cc2c[nH]c3ccccc23)NC(=O)[C@H](CC(C)C)NC(=O)[C@H](CC(=O)O)NC1=O)[C@@H](C)O [SP2 (B)]
65 | – | CC(=O)N[C@@H](CCC(=O)O)C(=O)N[C@H](C(=O)N[C@@H](Cc1ccccc1)C(=O)N[C@@]1(C)CCCC=CCCC[C@@H](OC(=O)[C@H](CCCCN)NC(=O)[C@@H](N)CCCCN)c2cn(nn2)CC[C@@H](C(=O)N[C@@H](CCC(=O)O)C(=O)N[C@@H](CC(N)=O)C(N)=O)NC(=O)[C@H](CC(C)C)NC(=O)[C@H](CC(C)C)NC(=O)[C@H](CCCNC(=N)N)NC(=O)[C@H](Cc2c[nH]c3ccccc23)NC(=O)[C@H](CC(C)C)NC(=O)[C@H](CC(=O)O)NC1=O)[C@@H](C)O [SP2‐K (A)]
36 | – | CC(=O)N[C@@H](CCC(=O)O)C(=O)N[C@H](C(=O)N[C@@H](Cc1ccccc1)C(=O)N[C@@]1(C)CCCC=CCCC[C@@H](OC(=O)[C@H](CCCCN)NC(=O)[C@@H](N)CCCCN)c2cn(nn2)CC[C@@H](C(=O)N[C@@H](CCC(=O)O)C(=O)N[C@@H](CC(N)=O)C(N)=O)NC(=O)[C@H](CC(C)C)NC(=O)[C@H](CC(C)C)NC(=O)[C@H](CCCNC(=N)N)NC(=O)[C@H](Cc2c[nH]c3ccccc23)NC(=O)[C@H](CC(C)C)NC(=O)[C@H](CC(=O)O)NC1=O)[C@@H](C)O [SP2‐K (B)]
